This note sets out measurements from patent publication US20250368649A1, “TETRAHYDROPYRIDOPYRIMIDINE PAN-KRAS INHIBITORS” (Mirati Therapeutics, Inc., priority 2022, published 2025).

For assay [1], the target named is KRas G12R (Homo sapiens, UniProt P01116, G12R). The experiment in a line: biochemical. Particulars: Binding to KRas (IC50 nM) G12R, TR-FRET displacement, KRas G12R.
The target of assay [2] is KRas G12V (Homo sapiens, UniProt P01116, G12V). The experiment in a line: biochemical. Particulars: Binding to KRas (IC50 nM) G12V, TR-FRET displacement, KRas G12V. For orientation: TR-FRET usually uses a lanthanide donor and a delayed reading to cut background.
Assay [3] deals with PSN1 cells. Nature of the assay: Inhibition of KRas-mediated phosphorylation of ERK (Cisbio HTRF pERK), PSN1 cells. Format: cell-based. The following applies: Homo sapiens, PSN1, 3 h, 3 hr compound incubation. Put shortly:
(§1)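 Day 1: 6,000 cells/well plated, RPMI + 10% FBS.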

The test system of assay [4] is HCT116 cells. Nature of the assay: Inhibition of KRas-mediated phosphorylation of ERK (Cisbio HTRF pERK), HCT116 cells. Particulars: Homo sapiens, HCT-116, 3 h, 3 hr compound incubation. It counts as cell-based.
In assay [5] the target is KRas G12D (Homo sapiens, UniProt P01116, G12D). The experiment in a line: biochemical. Particulars: Binding to KRas (IC50 nM) G12D, TR-FRET displacement, KRas G12D.
Assay [6] relates to H727 cells. The experiment in a line: Inhibition of KRas-mediated phosphorylation of ERK (Cisbio HTRF pERK), H727 cells. Format: cell-based. The following applies: Homo sapiens, NCI-H727, 3 h, 3 hr compound incubation.
Assay [7] has as its system H358 cells. The experiment in a line: Inhibition of KRas-mediated phosphorylation of ERK (Cisbio HTRF pERK), H358 cells. Particulars: Homo sapiens, NCI-H358, 3 h, 3 hr compound incubation. It counts as cell-based.
Assay [8] deals with H460 cells. Nature of the assay: Inhibition of KRas-mediated phosphorylation of ERK (Cisbio HTRF pERK), H460 cells. Format: cell-based. Particulars: Homo sapiens, NCI-H460, 3 h, 3 hr compound incubation.
Assay [9] relates to A549 cells. Nature of the assay: Inhibition of KRas-mediated phosphorylation of ERK (Cisbio HTRF pERK), A549 cells. It counts as cell-based. The following applies: Homo sapiens, A549, 3 h, 3 hr compound incubation.
Assay [10] deals with MKN1 cells. Nature of the assay: Inhibition of KRas-mediated phosphorylation of ERK (Cisbio HTRF pERK), MKN1 cells. Format: cell-based. Particulars: Homo sapiens, MKN-1, 3 hr compound incubation. Put shortly: as §1
For assay [11], the system named is ASPC1 cells. The experiment in a line: Inhibition of KRas-mediated phosphorylation of ERK (Cisbio HTRF pERK), ASPC1 cells. The following applies: Homo sapiens, ASPC1, 3 h, AsPC-1 cells; 3 hr compound incubation. It counts as cell-based.

The structures appear in SMILES notation.

Chain of KRas G12D (P01116 1-169 isoform P01116-2 G12D): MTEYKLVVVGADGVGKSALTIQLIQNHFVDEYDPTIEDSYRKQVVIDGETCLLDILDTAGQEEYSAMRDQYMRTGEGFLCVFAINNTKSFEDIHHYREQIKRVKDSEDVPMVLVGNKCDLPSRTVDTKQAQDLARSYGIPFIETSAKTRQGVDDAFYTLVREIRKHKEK
Chain of KRas G12V (P01116 1-169 isoform P01116-2 G12V): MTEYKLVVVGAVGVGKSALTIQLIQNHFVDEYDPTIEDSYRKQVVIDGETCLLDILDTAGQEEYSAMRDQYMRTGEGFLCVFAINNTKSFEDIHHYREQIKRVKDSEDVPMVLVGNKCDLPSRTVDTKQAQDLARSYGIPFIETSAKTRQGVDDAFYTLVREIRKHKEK
Chain of KRas G12R (P01116 1-169 isoform P01116-2 G12R): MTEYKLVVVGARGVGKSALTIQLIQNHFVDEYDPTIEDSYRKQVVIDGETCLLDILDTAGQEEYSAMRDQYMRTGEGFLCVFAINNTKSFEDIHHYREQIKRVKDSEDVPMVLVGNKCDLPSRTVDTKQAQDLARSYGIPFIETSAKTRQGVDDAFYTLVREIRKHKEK

Broadly, the IC50 is the concentration that gives 50% inhibition. A higher IC50 goes with a need for much substance. For the molecule `CCc1c(F)ccc2cc(O)cc(N3CCc4c(nc(OC[C@@]56CCCN5C[C@H](F)C6)nc4N4CCCn5nc(N)nc5C4)C3)c12` [Example 631, 4-(4-(2-amino-6,7-dihydro-5H-[1,2,4]triazolo[1,5-a][1,4]diazepin-8(9H)-yl)-2-(((2R,7aS)-2-fluorotetrahydro-1H-pyrrolizin-7a(5H)-yl)methoxy)-5,8-dihydropyrido[3,4-d]pyrimidin-7(6H)-yl)-5-ethyl-6-fluoronaphthalen-2-ol], the IC50 in assay [1] was < 2 nM; in [2] it was < 2 nM; in [3], 7140 nM; in assay [4], 508 nM; in assay [5] it was < 2 nM; in [6], 356 nM. Moreover, the 50% inhibitory concentration (IC50) in [7] was 24 nM; in assay [8] it was 341 nM; in assay [9] it was 68 nM; in [10], 48.3 nM; in assay [11], 69 nM.
In the case of `O=S1(=O)CCC2(CCCN(c3nc(OC[C@@]45CCCN4C[C@H](F)C5)nc4c3CCN(c3cc(O)cc5ccc(F)c(Cl)c35)C4)C2)N1` (stereo partly drawn) [Example 632, 7-(7-(8-chloro-7-fluoro-3-hydroxynaphthalen-1-yl)-2-(((2R,7aS)-2-fluorotetrahydro-1H-pyrrolizin-7a(5H)-yl)methoxy)-5,6,7,8-tetrahydropyrido[3,4-d]pyrimidin-4-yl)-2-thia-1,7-diazaspiro[4.5]decane 2,2-dioxide], the half-maximal inhibitory concentration (IC50) in [1] was < 2 nM; in assay [2], < 2 nM; in assay [3], 716 nM; in assay [4], 55 nM; in assay [5] it was < 2 nM; in assay [6] it was 32 nM. The concentration for half-maximal inhibition (IC50) turned out to be 6 nM in assay [7]; 21 nM in assay [8]; 19 nM in [9]; 4.1 nM in assay [10]; 12 nM in assay [11].
As to `CCc1c(F)ccc2cc(O)cc(N3CCc4c(nc(OC[C@@]56CCCN5C[C@H](F)C6)nc4N4CCCn5ncc(C(N)=O)c5C4)C3)c12` [Example 634, 5-(7-(8-ethyl-7-fluoro-3-hydroxynaphthalen-1-yl)-2-(((2R,7aS)-2-fluorotetrahydro-1H-pyrrolizin-7a(5H)-yl)methoxy)-5,6,7,8-tetrahydropyrido[3,4-d]pyrimidin-4-yl)-5,6,7,8-tetrahydro-4H-pyrazolo[1,5-a][1,4]diazepine-3-carboxamide], the IC50 in assay [1] is < 2 nM; in [2], < 2 nM; in [3], > 10000 nM; in assay [4], 1420 nM; in assay [5], < 2 nM; in assay [6], 284 nM. For the same molecule, the half-maximal inhibitory concentration (IC50) in [7] is 45 nM; in assay [8], 585 nM; in [9], 346 nM; in [10], 103 nM; in assay [11] it was 102 nM.
With `CCc1c(F)ccc2cc(O)cc(N3CCc4c(nc(OC[C@@]56CCCN5C[C@H](F)C6)nc4N4CCCn5ncc(C(=O)NC)c5C4)C3)c12` [Example 635, 5-(7-(8-ethyl-7-fluoro-3-hydroxynaphthalen-1-yl)-2-(((2R,7aS)-2-fluorotetrahydro-1H-pyrrolizin-7a(5H)-yl)methoxy)-5,6,7,8-tetrahydropyrido[3,4-d]pyrimidin-4-yl)-N-methyl-5,6,7,8-tetrahydro-4H-pyrazolo[1,5-a][1,4]diazepine-3-carboxamide], the IC50 in [1] was < 2 nM; in assay [2], < 2 nM; in [3] it was > 10000 nM; in assay [4] it was 1320 nM; in [5], < 2 nM; in assay [6], 230 nM. Further, the concentration for half-maximal inhibition (IC50) in assay [7] turned out to be 87 nM; in [8] it was 567 nM; in assay [9], 609 nM; in assay [10], 158 nM; in assay [11], 134 nM.
Take `CCc1c(F)ccc2cc(O)cc(N3CCc4c(nc(OC[C@@]56CCCN5C[C@H](F)C6)nc4N4CCCn5ncc(C(=O)N(C)C)c5C4)C3)c12` [Example 636, 5-(7-(8-ethyl-7-fluoro-3-hydroxynaphthalen-1-yl)-2-(((2R,7aS)-2-fluorotetrahydro-1H-pyrrolizin-7a(5H)-yl)methoxy)-5,6,7,8-tetrahydropyrido[3,4-d]pyrimidin-4-yl)-N,N-dimethyl-5,6,7,8-tetrahydro-4H-pyrazolo[1,5-a][1,4]diazepine-3-carboxamide]: the half-maximal inhibitory concentration (IC50) in [1] was < 2 nM; in [2] it was < 2 nM; in [3], > 10000 nM; in assay [4], 1110 nM; in assay [5] it was < 2 nM; in assay [6] it was 153 nM. The IC50 in [7] amounted to 45 nM; in assay [8], 418 nM; in assay [9], 200 nM; in [10], 81.1 nM; in [11], 29 nM.
As for `CCc1c(F)ccc2cc(O)cc(N3CCc4c(nc(OC[C@@]56CCCN5C[C@H](F)C6)nc4N4CCCn5ncc(C)c5C4)C3)c12` [Example 641, 5-ethyl-6-fluoro-4-(2-(((2R,7aS)-2-fluorotetrahydro-1H-pyrrolizin-7a(5H)-yl)methoxy)-4-(3-methyl-7,8-dihydro-4H-pyrazolo[1,5-a][1,4]diazepin-5(6H)-yl)-5,8-dihydropyrido[3,4-d]pyrimidin-7(6H)-yl)naphthalen-2-ol], the IC50 in [1] is < 2 nM; in assay [2] it was 2 nM; in assay [3], > 10000 nM; in [4] it was 1010 nM; in assay [5], < 2 nM; in assay [6] it was 216 nM. In addition, the concentration for half-maximal inhibition (IC50) was 109 nM in assay [7]; 481 nM in [8]; 225 nM in [9]; 303 nM in assay [10]; 179 nM in [11].
Regarding `CCc1c(F)ccc2cc(O)cc(N3CCc4c(nc(OC[C@@]56CCCN5C[C@H](F)C6)nc4N4CCCn5ncc(Cl)c5C4)C3)c12` [Example 642, 4-(4-(3-chloro-7,8-dihydro-4H-pyrazolo[1,5-a][1,4]diazepin-5(6H)-yl)-2-(((2R,7aS)-2-fluorotetrahydro-1H-pyrrolizin-7a(5H)-yl)methoxy)-5,8-dihydropyrido[3,4-d]pyrimidin-7(6H)-yl)-5-ethyl-6-fluoronaphthalen-2-ol], the IC50 in [1] is 3 nM; in assay [2], < 2 nM; in [3], > 10000 nM; in assay [4], 738 nM; in [5] it was < 2 nM; in assay [6] it was 200 nM. Besides, the half-maximal inhibitory concentration (IC50) in assay [7] came out at 105 nM; in assay [8], 325 nM; in assay [9], 145 nM; in assay [10] it was 120 nM; in assay [11], 59 nM.
Consider `CCc1c(F)ccc2cc(O)cc(N3CCc4c(nc(OC[C@@]56CCCN5C[C@H](F)C6)nc4N4CCCC5(CCS(=O)(=O)N5)C4)C3)c12` (stereo partly drawn) [Example 643, 7-(7-(8-ethyl-7-fluoro-3-hydroxynaphthalen-1-yl)-2-(((2R,7aS)-2-fluorotetrahydro-1H-pyrrolizin-7a(5H)-yl)methoxy)-5,6,7,8-tetrahydropyrido[3,4-d]pyrimidin-4-yl)-2-thia-1,7-diazaspiro[4.5]decane 2,2-dioxide], for which the half-inhibitory concentration (IC50) in assay [1] is < 2 nM; in [2], < 2 nM; in assay [3] it was 4880 nM; in assay [4] it was 312 nM; in assay [5] it was < 2 nM; in assay [6], 211 nM. The IC50 in assay [7] came to 30 nM; in [8], 67 nM; in assay [9], 266 nM; in assay [10], 39.9 nM; in assay [11] it was 27 nM.
For `CCc1c(F)ccc2cc(O)cc(N3CCc4c(nc(OC[C@@]56CCCN5C[C@H](F)C6)nc4N4CCCN(c5nccs5)CC4)C3)c12` [Example 648, 5-ethyl-6-fluoro-4-(2-(((2R,7aS)-2-fluorotetrahydro-1H-pyrrolizin-7a(5H)-yl)methoxy)-4-(4-(thiazol-2-yl)-1,4-diazepan-1-yl)-5,8-dihydropyrido[3,4-d]pyrimidin-7(6H)-yl)naphthalen-2-ol], the IC50 in [1] is 4 nM; in assay [2] it was 7 nM; in [3], > 10000 nM; in assay [4] it was 570 nM; in assay [5], 17 nM; in assay [6], 2330 nM. Besides, the IC50 is 710 nM in assay [7]; 184 nM in [8]; 1130 nM in assay [9]; 101 nM in assay [10]; 1940 nM in assay [11].
